The conditions of data set [1]: cited from earlier work.
Data set [2] deals with HOG (human oligodendroglioma) cells. As to the kind of experiment: Caspase-3/7 assay in HOG cells. It is filed as cell-based. As to conditions: 20 μM and 50 μM, 48 h or 96 h (FIG. 3). Here is the method: Cells. B16F10 (mouse melanoma), GL261 (mouse glioma), HOG (human oligodendroglioma), A549 (human lung cancer), and […] (mouse neuroblastoma) cells were cultured separately in DMEM containing 10% (v/v) fetal bovine serum and 1% (v/v) penicillin-streptomycin (PS) and allowed to grow to 40% confluence in a 96-well plate. Curcumin Treatment. Two hours before drug treatment, the medium in each well was replaced with 200 μl Neurobasal medium supplemented with 2% (v/v) B27 and 1% (v/v) PS (Drug-treatment Medium). A stock solution (40 mM) of curcumin was prepared in sterile dimethyl sulfoxide (DMSO) (Example 1). Through serial dilution of each stock solution in Drug-treatment Medium, the following concentrations were obtained: 20 μM and 50 μM (for caspase 3/7 assays) or 25 μM and 50 μM (for MTT assays). Drug-treatment Medium in each well was aspirated, and a drug solution of each concentration or carrier-containing medium (control) was added to triplicate wells of cells (50 μl/well). […] Additionally, the background absorbance was determined from parallel wells containing only the Drug-treatment Medium plus a particular concentration of the drug (no cells). […] Fluorescence in each well was measured using the FLx 800 plate reader (Bio-Tek Instruments, Winooski, Vt.) set at 485/20 nm excitation and 528/20 nm emission wavelengths and the sensitivity of 70. […]

For a further data set, the system named is breast tumor cell lines. Particulars: several breast tumor cell lines (Mehta et al. 1997); cited from earlier work.
The subject of a further data set is VEGF. As to the kind of experiment: Western blot of B16F10 cells, VEGF. It is filed as cell-based, mouse. Particulars: 50 μM. Here is the method:
B16F10 cells were cultured in 10-cm plates and then treated in duplicate with carrier or curcumin (50 μM). Following treatment for appropriate time periods, the cells were washed with PBS, lysed in RIPA buffer (PBS containing 1% Nonidet P40, 0.5% sodium deoxycholate, 0.1% SDS, 0.5 mM Na3VO4 plus freshly added PMSF and protease inhibitor cocktail; Boeringer-Roche), and then 20 μg of lysate protein (per lane) were analyzed by SDS-10% PAGE and Western blot analysis. Antibody concentrations used were: anti-phospho-NF-κB (1:1000) (Santa Cruz Biotechnology, Santa Cruz, Calif.), anti-phospho-Akt (1:5000) (Cell Signaling, CA), anti-cyclin D1 (1:1000) (Cell Signaling, CA), anti-BclXL (1:500) (Santa Cruz Biotechnology), anti-VEGF (1:500) (Santa Cruz Biotechnology), and anti-β-actin (1:1000) (Sigma, St. Louis, Mo.).
Background: A western blot detects proteins with antibodies after separation by electrophoresis.

Data set [3] relates to A549 (human lung cancer) cells. As to the kind of experiment: Cell viability assay using MTT, A549. The format is cell-based. Particulars: 25 μM and 50 μM, 48 h or 96 h, versus control cells (FIG. 6d). Here is the method: Cells. B16F10 (mouse melanoma), GL261 (mouse glioma), HOG (human oligodendroglioma), A549 (human lung cancer), and N18 (mouse neuroblastoma) cells were cultured separately in DMEM containing 10% (v/v) fetal bovine serum and 1% (v/v) penicillin-streptomycin (PS) and allowed to grow to 40% confluence in a 96-well plate.
Curcumin Treatment. Two hours before drug treatment, the medium in each well was replaced with 200 μl Neurobasal medium supplemented with 2% (v/v) B27 and 1% (v/v) PS (Drug-treatment Medium). A stock solution (40 mM) of curcumin was prepared in sterile dimethyl sulfoxide (DMSO) (Example 1). Through serial dilution of each stock solution in Drug-treatment Medium, the following concentrations were obtained: 20 μM and 50 μM (for caspase 3/7 assays) or 25 μM and 50 μM (for MTT assays). […] Additionally, the background absorbance was determined from parallel wells containing only the Drug-treatment Medium plus a particular concentration of the drug (no cells).
Cell Viability Assay Using MTT (3-(4,5-Dimethylthiazolyl-2)-2,5-Diphenyltetrazolium Bromide). […] Absorbance was measured at 570 nm using a 96-well multi scanner auto-reader with the extraction buffer used as blank. For curcumin samples, the absorbance obtained from the corresponding curcumin plus medium samples was subtracted.

A further data set has as its system human glioma cells. Particulars: human glioma cells in vitro (Karmakar 2006; Dhandapani 2007); cited from earlier work.

With `COc1cc(/C=C/C(=O)CC(=O)/C=C/c2ccc(O)c(OC)c2)ccc1O` [curcumin], in data set [1], the solubility in water entry was “very low”. Besides, the caspase-3/7 activity result in data set [2] is listed as “increased”. In the data set on breast tumor cell lines, the proliferation result is “antiproliferative effects”. The “VEGF (Western blot)” value in the data set on VEGF is reported as “suppressed”. In data set [3], the “cell viability (MTT)” value was “dramatic decrease”. Further, the apoptosis entry with human glioma cells is on record as “triggers apoptosis”.

The values are drawn from patent US20100197584A1, “USE OF CURCUMIN TO BLOCK BRAIN TUMOR FORMATION IN MICE” (Research Foundations of the City University of- New York, priority 2007, published 2010).
